Source: US20250241976A1, “ADMINISTRATION OF AN ANTICANCER PEPTIDE” (Verrica Pharmaceuticals, Inc., priority 2024, published 2025)
Where a SMILES comes first, the peptide text is derived from it. [ ]: non-standard residue; d: D form. Dip = N[C@H](C(=O)O)C(c1ccccc1)c1ccccc1

What was measured:
[1] = tested on: basal cell carcinoma (BCC) lesion; test: Clinical study: intradermal injection of Peptide A into basal cell carcinoma lesions, with TRAEs, withdrawals and necrosis recorded; type: in vivo, human
Description: This study involved human adults ≥18 years of age with clinically suspected BCC with at least 1 (and up to 5) eligible lesion(s) suitable for biopsy and excision. The size of the lesion(s) were ≥0.5 cm and ≤2 cm in longest diameter prior to punch biopsy or ≥1 cm and ≤2 cm in longest diameter prior to shave biopsy. Histological diagnosis of nodular, micronodular, or superficial BCC, as confirmed by punch or shave biopsy, was performed within 90 days of treatment.
(§1) Peptide A was provided as the acetate salt, 20 mg of lyophilized powder per vial for injection. The powder was reconstituted in saline to a concentration ranging from 4-20 mg/mL based upon the target dose and volume for each subject. Peptide A was supplied in colorless glass vials (Ph. Eur. hydrolytic class I) fitted with rubber stopper (Ph. Eur. type I).
Peptide A (acetate salt) was administered via intradermal injection into a single target lesion (between ≥0.5 cm and ≤2 cm in longest diameter) using the 1-mL syringe and 30-gauge 0.5-inch needle. The subjects were positioned in a way so that the target lesion lies flat, to avoid any dependent areas that may be susceptible to leakage of the pharmaceutical composition. Subsequent injections for the same lesion were given in remaining nonnecrotic areas of the lesion, as assessed prior to treatment. […]
Cohort 2 was assigned a regimen of 8 mg of Peptide A for each treatment day (with no partitioned administration on any day).
[…] The total 500 μL (8 mg) dosage volume is divided into 2 injections given at least 15 minutes and no more than 30 minutes apart, with 30% (150 μL) administered in the first injection and the remaining 70% (350 μL) with the second injection.
A radial administration method was also used for Cohorts 4 and 5. The formulation with Peptide A is injected intradermally for all injections and subcutaneous injection should be avoided. It is important to ensure adequate and even distribution of Peptide A across the entire base of the lesion. To accomplish adequate and even distribution of Peptide A across the entire lesion: The first 150 μL is injected as centrally as possible such that Peptide A can distribute radially outward; and the second (350 μL) portion is injected in a clockface fashion (i.e., at 12, 3, 6, 9 o'clock as shown in FIG. 1) as needed to ensure uniform distribution into the periphery of the lesion. The needle is inserted at a 10- to 20-degree angle for a flat lesion, or at an increased angle (i.e., greater than 20-degree) for a raised lesion.

[2] = Storage of reconstituted Peptide A solution; type: physicochemical
Description: as §1
Peptide A vials (20 mg/vial) were stored at 2-8° C. (36-46° F.) or −20±5° C. (−13 to 5° F.) protected from light at the study site, separated from other drugs. The reconstituted Peptide A solution can be stored for up to 12 hours in a refrigerator at 2-8° C. (36-46° F.). Syringes with Peptide A drawn from the vial can be stored for up to 4 hours at 20-25° C. (68-77° F.) protected from light. Any unused portion was discarded.

In the case of `NCCCC[C@H](NC(=O)[C@@H](NC(=O)[C@H](Cc1c[nH]c2ccccc12)NC(=O)[C@H](CCCCN)NC(=O)[C@H](CCCCN)NC(=O)[C@H](Cc1c[nH]c2ccccc12)NC(=O)[C@H](Cc1c[nH]c2ccccc12)NC(=O)[C@H](CCCCN)NC(=O)[C@@H](N)CCCCN)C(c1ccccc1)c1ccccc1)C(N)=O` [Peptide A, KKWWKKWDipK-NH2] (H-KKWWKKW[Dip]K-NH2), the “Subjects experiencing TRAEs of burning and pain at the injection site” value ([1]; Cohorts 1 and 2, 4 mg then 8 mg or 8 mg daily, no partitioned administration) is reported as “Several subjects”, the “Subjects withdrawn from treatment due to TRAEs” value ([1]; Cohorts 1 and 2, no partitioned administration) is reported as “Two subjects withdrew” and the “Change in TRAEs” value ([1]; Cohorts 4 and 5, partitioned (30%/70%, 15-30 min apart) and radial administration, 8 mg in 500 μL) is reported as “marked decrease”. The “Withdrawal from study treatment due to TRAEs of burning or pain at the injection site” value ([1]; Cohorts 4 and 5 and expansion cohorts (10, 10, 26, 27 subjects enrolled), partitioned and radial administration, 8 mg) was “No subjects have withdrawn from study”, the “Treatment status after TRAE” value ([1]; Subject 3, Cohort 1, W1D2, no partitioned administration, subject withdrawn from treatment) was “Discontinued” and the Lesion necrosis status ([1]; Subject 5, Cohort 1, W1D3 after 4 mg W1D1 and 8 mg W1D2, no partitioned administration, no injection given) was “Complete”. For the same compound, the “TRAEs (pain severity)” value ([1]; Subject 8, Cohort 2, 8 mg on W1D1, no partitioned administration) was “experiencing moderate”, the “Duration of pain post-treatment” value ([1]; Subject 8, Cohort 2, 8 mg, no partitioned administration) was “about 3-4 hours post-” and the “Treatment status after TRAE” value ([1]; Subject 8, Cohort 2, W1D2, no partitioned administration, subject withdrew from treatment) was “Discontinued”. The TRAEs reported ([1]; Subject 9, Cohort 2, after the W1D2 treatment (8 mg), no partitioned administration, subject continued treatment) was “injection-site burning”, the “Storage time of syringes with Peptide A drawn from the vial” value ([2]; 20-25° C., protected from light) was “up to 4 hours” and the “Storage time of reconstituted Peptide A solution” value ([2]; reconstituted in saline, refrigerator at 2-8° C.) was “up to 12 hours”.
